Values quoted from earlier work as cited in patent US10159714B2, “Compositions, devices and methods of use thereof for the treatment of cancers” (Intarcia Therapeutics, Inc., priority 2011, dated 2018).
Where no end group is shown, it is not given here.

Tests used:
[1] = system: prostatic tumors in Noble and Dunning male rats and DMBA-induced mammary tumors in female rats; settings: hormone-dependent tumors in rats
[2] = system: gonadotropin secretion / testosterone
[3] = system: fasting hyperglycemia; settings: type 2 diabetic patients

Compound | tumor growth [1] | time to decrease of LH, FSH and testosterone after initiation of treatment ([2]; continuous administration) | oral activity ([2]; in vivo, po) | testosterone level ([2]; males, continuous administration) | effect on fasting hyperglycemia [3]
CCNC(=O)[C@@H]1CCCN1C(=O)[C@H](CCCNC(=N)N)NC(=O)[C@H](CC(C)C)NC(=O)[C@@H](CC(C)C)NC(=O)[C@H](Cc1ccc(O)cc1)NC(=O)[C@H](CO)NC(=O)[C@H](Cc1c[nH]c2ccccc12)NC(=O)[C@H](Cc1c[nH]cn1)NC(=O)[C@@H]1CCC(=O)N1 [leuprolide acetate] | inhibition of the growth | two to six | not active when given orally | reduced to castrate levels | 
GLP-1(7-37) (HAEGTFTSDVSSYLEGQAAKEFIAWLVKGRG; Glucagon-like peptide 1(7-37); UniProt P01275 98-128, looked up) [form of the GLP-1 peptide] |  |  |  |  | normalize fasting hyperglycemia
glucagon-like peptide-1 (7-36) amide (HAEGTFTSDVSSYLEGQAAKEFIAWLVKGR-NH2; listed as Homo sapiens) [GLP-1(7-36)amide] |  |  |  |  | normalize fasting hyperglycemia
